In PubChem BioAssay (NCI):
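Protocol summary: plate cells (96-well), add compound at 5 concentrations, incubate 48 h, interpolate endpoints linearly. The concentration for 50% growth inhibition is given as GI50. TGI denotes the concentration required for complete inhibition of growth.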

Assays:
Assay in all cases: NCI-60 cell line screen, 48 h
786-0 renal = test system: 786-0 renal
A498 renal = test system: A498 renal
A549 NSCLC = test system: A549 NSCLC
ACHN renal = test system: ACHN renal
BT-549 breast = test system: BT-549 breast
CAKI-1 renal = test system: CAKI-1 renal
CCRF-CEM leukemia = test system: CCRF-CEM leukemia
COLO 205 colon = test system: COLO 205 colon
DU-145 prostate = test system: DU-145 prostate
EKVX NSCLC = test system: EKVX NSCLC
HCC-2998 colon = test system: HCC-2998 colon
HCT-116 colon = test system: HCT-116 colon
HCT-15 colon = test system: HCT-15 colon
HL-60(TB) leukemia = test system: HL-60(TB) leukemia
HOP-62 NSCLC = test system: HOP-62 NSCLC
HOP-92 NSCLC = test system: HOP-92 NSCLC
HS 578T breast = test system: HS 578T breast
HT29 colon = test system: HT29 colon
IGROV1 ovarian = test system: IGROV1 ovarian
K-562 leukemia = test system: K-562 leukemia
KM12 colon = test system: KM12 colon
LOX IMVI melanoma = test system: LOX IMVI melanoma
MALME-3M melanoma = test system: MALME-3M melanoma
MCF7 breast = test system: MCF7 breast
MDA-MB-231 breast = test system: MDA-MB-231 breast
MOLT-4 leukemia = test system: MOLT-4 leukemia
NCI-H226 lung = test system: NCI-H226 lung
NCI-H23 lung = test system: NCI-H23 lung
NCI-H460 lung = test system: NCI-H460 lung
NCI-H522 lung = test system: NCI-H522 lung
OVCAR-3 ovarian = test system: OVCAR-3 ovarian
OVCAR-4 ovarian = test system: OVCAR-4 ovarian
OVCAR-5 ovarian = test system: OVCAR-5 ovarian
OVCAR-8 ovarian = test system: OVCAR-8 ovarian
PC-3 prostate = test system: PC-3 prostate
RPMI-8226 leukemia = test system: RPMI-8226 leukemia
RXF 393 renal = test system: RXF 393 renal
SF-268 CNS = test system: SF-268 CNS
SF-295 CNS = test system: SF-295 CNS
SF-539 CNS = test system: SF-539 CNS
SK-MEL-28 melanoma = test system: SK-MEL-28 melanoma
SK-MEL-5 melanoma = test system: SK-MEL-5 melanoma
SK-OV-3 ovarian = test system: SK-OV-3 ovarian
SN12C renal = test system: SN12C renal
SNB-19 CNS = test system: SNB-19 CNS
SNB-75 CNS = test system: SNB-75 CNS
SR leukemia = test system: SR leukemia
SW-620 colon = test system: SW-620 colon
T-47D breast = test system: T-47D breast
TK-10 renal = test system: TK-10 renal
U251 CNS = test system: U251 CNS
UACC-257 melanoma = test system: UACC-257 melanoma
UACC-62 melanoma = test system: UACC-62 melanoma
UO-31 renal = test system: UO-31 renal

Structure (SMILES): NC(=Nc1ccc(OCCCCCCCCn2ccnn2)cc1)c1ccccc1
- GI50 (786-0 renal): 643 nM
- TGI (786-0 renal): > 44100 nM
- GI50 (A498 renal): 4750 nM
- TGI (A498 renal): 28400 nM
- GI50 (A549 NSCLC): 458 nM
- TGI (A549 NSCLC): > 46300 nM
- GI50 (ACHN renal): 714 nM
- TGI (ACHN renal): 24700 nM
- GI50 (BT-549 breast): 656 nM
- TGI (BT-549 breast): 12200 nM
- GI50 (CAKI-1 renal): 260 nM
- TGI (CAKI-1 renal): 21000 nM
- GI50 (CCRF-CEM leukemia): 271 nM
- TGI (CCRF-CEM leukemia): 19400 nM
- GI50 (COLO 205 colon): 238 nM
- TGI (COLO 205 colon): 1140 nM
- GI50 (DU-145 prostate): 446 nM
- TGI (DU-145 prostate): 24600 nM
- GI50 (EKVX NSCLC): 286 nM
- TGI (EKVX NSCLC): > 40900 nM
- GI50 (HCC-2998 colon): 535 nM
- TGI (HCC-2998 colon): 11200 nM
- GI50 (HCT-116 colon): 325 nM
- TGI (HCT-116 colon): 12700 nM
- GI50 (HCT-15 colon): 236 nM
- TGI (HCT-15 colon): 22900 nM
- GI50 (HL-60(TB) leukemia): 239 nM
- TGI (HL-60(TB) leukemia): 2900 nM
- GI50 (HOP-62 NSCLC): 466 nM
- TGI (HOP-62 NSCLC): 15000 nM
- GI50 (HOP-92 NSCLC): 1200 nM
- TGI (HOP-92 NSCLC): 28800 nM
- GI50 (HS 578T breast): 271 nM
- TGI (HS 578T breast): 7440 nM
- GI50 (HT29 colon): 293 nM
- TGI (HT29 colon): 884 nM
- GI50 (IGROV1 ovarian): 564 nM
- TGI (IGROV1 ovarian): 16800 nM
- GI50 (K-562 leukemia): 144 nM
- TGI (K-562 leukemia): > 56000 nM
- GI50 (KM12 colon): 269 nM
- TGI (KM12 colon): 19000 nM
- GI50 (LOX IMVI melanoma): 482 nM
- TGI (LOX IMVI melanoma): 13100 nM
- GI50 (MALME-3M melanoma): 300 nM
- TGI (MALME-3M melanoma): 15900 nM
- GI50 (MCF7 breast): 124 nM
- TGI (MCF7 breast): 18800 nM
- GI50 (MDA-MB-231 breast): 557 nM
- TGI (MDA-MB-231 breast): 12700 nM
- GI50 (MOLT-4 leukemia): 585 nM
- TGI (MOLT-4 leukemia): > 49600 nM
- GI50 (NCI-H226 lung): 853 nM
- TGI (NCI-H226 lung): 12100 nM
- GI50 (NCI-H23 lung): 458 nM
- TGI (NCI-H23 lung): 17900 nM
- GI50 (NCI-H460 lung): 208 nM
- TGI (NCI-H460 lung): 10300 nM
- GI50 (NCI-H522 lung): 207 nM
- TGI (NCI-H522 lung): 1900 nM
- GI50 (OVCAR-3 ovarian): 126 nM
- TGI (OVCAR-3 ovarian): 5000 nM
- GI50 (OVCAR-4 ovarian): 4260 nM
- TGI (OVCAR-4 ovarian): > 62900 nM
- GI50 (OVCAR-5 ovarian): 432 nM
- TGI (OVCAR-5 ovarian): 17300 nM
- GI50 (OVCAR-8 ovarian): 462 nM
- TGI (OVCAR-8 ovarian): 3970 nM
- GI50 (PC-3 prostate): 337 nM
- TGI (PC-3 prostate): > 44900 nM
- GI50 (RPMI-8226 leukemia): 404 nM
- TGI (RPMI-8226 leukemia): 17800 nM
- GI50 (RXF 393 renal): 304 nM
- TGI (RXF 393 renal): 6290 nM
- GI50 (SF-268 CNS): 1170 nM
- TGI (SF-268 CNS): 25400 nM
- GI50 (SF-295 CNS): 204 nM
- TGI (SF-295 CNS): 11500 nM
- GI50 (SF-539 CNS): 239 nM
- TGI (SF-539 CNS): 870 nM
- GI50 (SK-MEL-28 melanoma): 662 nM
- TGI (SK-MEL-28 melanoma): 22900 nM
- GI50 (SK-MEL-5 melanoma): 157 nM
- TGI (SK-MEL-5 melanoma): 1720 nM
- GI50 (SK-OV-3 ovarian): 532 nM
- TGI (SK-OV-3 ovarian): 32800 nM
- GI50 (SN12C renal): 495 nM
- TGI (SN12C renal): 16100 nM
- GI50 (SNB-19 CNS): 757 nM
- TGI (SNB-19 CNS): > 49900 nM
- GI50 (SNB-75 CNS): 163 nM
- TGI (SNB-75 CNS): 29200 nM
- GI50 (SR leukemia): 606 nM
- TGI (SR leukemia): > 100000 nM
- GI50 (SW-620 colon): 148 nM
- TGI (SW-620 colon): > 40800 nM
- GI50 (T-47D breast): 449 nM
- TGI (T-47D breast): 34400 nM
- GI50 (TK-10 renal): 3000 nM
- TGI (TK-10 renal): 45000 nM
- GI50 (U251 CNS): 427 nM
- TGI (U251 CNS): 28800 nM
- GI50 (UACC-257 melanoma): 952 nM
- TGI (UACC-257 melanoma): 18500 nM
- GI50 (UACC-62 melanoma): 215 nM
- TGI (UACC-62 melanoma): 13100 nM
- GI50 (UO-31 renal): 565 nM
- TGI (UO-31 renal): 19900 nM
